{"source": "ChEMBL document CHEMBL1240532", "about": "“Spiroindolones, a potent compound class for the treatment of malaria” (Science, 2010)", "key": {"[1]": {"system": "Plasmodium vivax", "assay": "Antimalarial activity against Plasmodium vivax isolates after 42 hrs", "type": "functional, organism-based"}, "[2]": {"system": "Plasmodium falciparum", "assay": "Antimalarial activity against Plasmodium falciparum 3D7 assessed as parasite growth inhibition at 1.6 nM after24 hrs by [3H]hypoxanthin incorporation assay", "type": "functional"}, "[3]": {"system": "Plasmodium falciparum", "assay": "Antimalarial activity against Plasmodium falciparum D6 after 48 hrs incubation by [3H]hypoxanthin incorporation assay"}, "[4]": {"target": "hERG (KCNH2) (Homo sapiens, UniProt Q12809)", "sequence (Q12809 whole entry)": "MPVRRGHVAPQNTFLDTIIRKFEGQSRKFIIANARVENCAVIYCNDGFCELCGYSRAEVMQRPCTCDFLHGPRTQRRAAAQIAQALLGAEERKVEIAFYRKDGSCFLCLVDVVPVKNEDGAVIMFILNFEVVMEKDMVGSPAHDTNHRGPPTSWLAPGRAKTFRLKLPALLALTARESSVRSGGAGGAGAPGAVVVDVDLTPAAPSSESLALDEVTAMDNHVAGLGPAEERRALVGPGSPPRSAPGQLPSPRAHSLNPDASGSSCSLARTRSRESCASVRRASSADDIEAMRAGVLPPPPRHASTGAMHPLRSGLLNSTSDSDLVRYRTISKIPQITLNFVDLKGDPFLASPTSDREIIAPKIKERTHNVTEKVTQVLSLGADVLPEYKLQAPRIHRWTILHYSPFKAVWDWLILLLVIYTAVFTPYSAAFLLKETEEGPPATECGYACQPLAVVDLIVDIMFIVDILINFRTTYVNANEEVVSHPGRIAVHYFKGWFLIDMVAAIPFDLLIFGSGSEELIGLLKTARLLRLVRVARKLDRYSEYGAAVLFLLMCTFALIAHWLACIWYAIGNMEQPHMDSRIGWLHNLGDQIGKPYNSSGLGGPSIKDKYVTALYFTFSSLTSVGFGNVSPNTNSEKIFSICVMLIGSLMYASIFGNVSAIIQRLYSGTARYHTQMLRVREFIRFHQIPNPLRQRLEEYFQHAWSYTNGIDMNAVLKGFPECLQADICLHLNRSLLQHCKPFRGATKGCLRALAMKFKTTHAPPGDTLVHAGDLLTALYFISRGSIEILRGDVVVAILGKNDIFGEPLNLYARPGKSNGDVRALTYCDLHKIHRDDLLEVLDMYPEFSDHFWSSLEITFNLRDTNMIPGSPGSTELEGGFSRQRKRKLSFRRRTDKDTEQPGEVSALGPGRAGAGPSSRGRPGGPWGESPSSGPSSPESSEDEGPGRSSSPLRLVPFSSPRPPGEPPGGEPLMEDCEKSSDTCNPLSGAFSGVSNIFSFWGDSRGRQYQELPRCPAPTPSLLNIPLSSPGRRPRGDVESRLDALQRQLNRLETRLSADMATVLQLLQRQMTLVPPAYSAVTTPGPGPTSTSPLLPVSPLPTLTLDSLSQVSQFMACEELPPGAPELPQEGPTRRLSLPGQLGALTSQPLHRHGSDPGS", "assay": "Inhibition of human ERG at 30 uM"}, "[5]": {"target": "Beta-1 adrenergic receptor (Homo sapiens, UniProt P08588)", "sequence (P08588 whole entry)": "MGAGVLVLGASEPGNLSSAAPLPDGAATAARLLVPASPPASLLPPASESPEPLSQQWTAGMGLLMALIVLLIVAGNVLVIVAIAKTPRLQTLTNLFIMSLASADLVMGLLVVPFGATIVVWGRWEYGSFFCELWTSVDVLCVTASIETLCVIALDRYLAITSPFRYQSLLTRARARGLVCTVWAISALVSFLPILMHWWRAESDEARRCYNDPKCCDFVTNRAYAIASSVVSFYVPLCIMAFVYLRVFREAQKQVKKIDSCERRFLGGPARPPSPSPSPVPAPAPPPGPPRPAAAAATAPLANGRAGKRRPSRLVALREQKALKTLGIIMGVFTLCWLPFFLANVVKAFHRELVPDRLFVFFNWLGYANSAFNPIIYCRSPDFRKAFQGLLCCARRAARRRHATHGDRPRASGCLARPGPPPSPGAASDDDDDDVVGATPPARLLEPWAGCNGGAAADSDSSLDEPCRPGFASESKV", "assay": "Binding affinity to human recombinant adrenergic beta-1 receptor"}, "[6]": {"target": "Beta-2 adrenergic receptor (Homo sapiens, UniProt P07550)", "assay": "Binding affinity to human recombinant adrenergic beta2 receptor"}, "[7]": {"target": "Alpha-2B adrenergic receptor (Homo sapiens, UniProt P18089)", "assay": "Binding affinity to human recombinant alpha2b receptor"}, "[8]": {"target": "Voltage-gated L-type calcium channel (Rattus norvegicus, UniProt P22002+Q02485+P27732)", "assay": "Binding affinity to rat L-type calcium channel"}, "[9]": {"target": "Gastrin/cholecystokinin type B receptor (Homo sapiens, UniProt P32239)", "sequence (P32239 whole entry)": "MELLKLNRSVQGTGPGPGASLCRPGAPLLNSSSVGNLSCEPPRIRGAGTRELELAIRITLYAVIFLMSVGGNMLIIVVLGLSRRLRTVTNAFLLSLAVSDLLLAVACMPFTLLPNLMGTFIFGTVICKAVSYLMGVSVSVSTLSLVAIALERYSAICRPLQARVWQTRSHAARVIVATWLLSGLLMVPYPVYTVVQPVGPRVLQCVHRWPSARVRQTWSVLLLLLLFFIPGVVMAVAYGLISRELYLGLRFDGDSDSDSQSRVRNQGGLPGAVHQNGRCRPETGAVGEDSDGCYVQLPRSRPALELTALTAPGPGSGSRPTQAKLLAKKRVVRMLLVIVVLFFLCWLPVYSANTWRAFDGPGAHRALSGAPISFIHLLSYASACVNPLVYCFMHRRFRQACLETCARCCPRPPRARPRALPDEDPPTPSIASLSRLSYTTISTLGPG", "assay": "Binding affinity to human recombinant cholecystokinin B receptor"}, "[10]": {"target": "Endothelin receptor type B (Homo sapiens, UniProt P24530)", "assay": "Binding affinity to human recombinant endothelin B receptor"}, "[11]": {"target": "GABA-A receptor; agonist GABA site", "assay": "Binding affinity to human recombinant GABAA receptor", "type": "protein-complex assay"}, "[12]": {"target": "Gastric inhibitory polypeptide receptor (Rattus norvegicus, UniProt P43219)", "assay": "Binding affinity to rat Gip receptor"}, "[13]": {"target": "Histamine H1 receptor (Homo sapiens, UniProt P35367)", "sequence (P35367 whole entry)": "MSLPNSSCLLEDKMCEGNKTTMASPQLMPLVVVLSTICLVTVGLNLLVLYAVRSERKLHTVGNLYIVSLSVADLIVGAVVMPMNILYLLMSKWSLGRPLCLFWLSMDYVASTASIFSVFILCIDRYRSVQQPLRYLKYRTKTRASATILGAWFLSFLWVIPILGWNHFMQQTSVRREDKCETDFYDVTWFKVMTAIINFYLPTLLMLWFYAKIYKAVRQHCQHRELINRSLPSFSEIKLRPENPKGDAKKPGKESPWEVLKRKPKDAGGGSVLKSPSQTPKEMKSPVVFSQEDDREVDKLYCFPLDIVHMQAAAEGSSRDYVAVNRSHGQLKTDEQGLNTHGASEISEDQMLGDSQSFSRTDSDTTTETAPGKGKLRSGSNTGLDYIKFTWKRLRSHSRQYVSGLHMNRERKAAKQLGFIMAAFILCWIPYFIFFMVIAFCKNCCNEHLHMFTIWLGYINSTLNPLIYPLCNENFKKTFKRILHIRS", "assay": "Binding affinity to human recombinant histamine H1 receptor"}, "[14]": {"target": "Histamine H2 receptor (Homo sapiens, UniProt P25021)", "sequence (P25021 whole entry)": "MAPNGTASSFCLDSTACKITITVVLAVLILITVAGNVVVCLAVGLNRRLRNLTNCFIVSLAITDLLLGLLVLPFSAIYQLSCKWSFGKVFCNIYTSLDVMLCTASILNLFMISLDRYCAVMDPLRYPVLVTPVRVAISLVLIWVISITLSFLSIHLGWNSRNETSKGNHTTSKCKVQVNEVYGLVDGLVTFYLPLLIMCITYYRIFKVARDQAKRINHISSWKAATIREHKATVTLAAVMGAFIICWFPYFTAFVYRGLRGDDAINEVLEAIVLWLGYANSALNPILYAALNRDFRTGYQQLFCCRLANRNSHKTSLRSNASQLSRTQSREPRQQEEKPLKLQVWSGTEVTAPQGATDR", "assay": "Binding affinity to human recombinant histamine H2 receptor"}, "[15]": {"target": "Melanocortin receptor 4 (Homo sapiens, UniProt P32245)", "assay": "Binding affinity to human recombinant melanocortin MC4 receptor"}, "[16]": {"target": "Muscarinic acetylcholine receptor M3 (Homo sapiens, UniProt P20309)", "assay": "Binding affinity to human recombinant muscarinic M3 receptor"}, "[17]": {"target": "Neuropeptide Y receptor type 1 (Homo sapiens, UniProt P25929)", "sequence (P25929 whole entry)": "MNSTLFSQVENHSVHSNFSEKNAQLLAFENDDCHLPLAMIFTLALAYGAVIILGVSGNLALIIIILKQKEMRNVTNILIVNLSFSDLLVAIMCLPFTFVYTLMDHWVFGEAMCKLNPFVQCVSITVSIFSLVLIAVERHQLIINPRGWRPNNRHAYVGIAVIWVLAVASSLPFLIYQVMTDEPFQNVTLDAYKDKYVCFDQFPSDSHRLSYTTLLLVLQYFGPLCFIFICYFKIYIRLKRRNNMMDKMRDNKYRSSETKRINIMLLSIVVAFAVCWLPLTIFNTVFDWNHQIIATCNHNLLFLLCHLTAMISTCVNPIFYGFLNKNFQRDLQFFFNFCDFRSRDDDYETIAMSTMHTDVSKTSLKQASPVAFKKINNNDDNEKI", "assay": "Binding affinity to human recombinant neuropeptide Y1 receptor"}, "[18]": {"assay": "Binding affinity to human recombinant nicotinic (CNS) receptor"}, "[19]": {"target": "Mu-type opioid receptor (Homo sapiens, UniProt P35372)", "assay": "Binding affinity to human recombinant opiate mu receptor"}, "[20]": {"target": "5-hydroxytryptamine receptor 1A (Homo sapiens, UniProt P08908)", "sequence (P08908 whole entry)": "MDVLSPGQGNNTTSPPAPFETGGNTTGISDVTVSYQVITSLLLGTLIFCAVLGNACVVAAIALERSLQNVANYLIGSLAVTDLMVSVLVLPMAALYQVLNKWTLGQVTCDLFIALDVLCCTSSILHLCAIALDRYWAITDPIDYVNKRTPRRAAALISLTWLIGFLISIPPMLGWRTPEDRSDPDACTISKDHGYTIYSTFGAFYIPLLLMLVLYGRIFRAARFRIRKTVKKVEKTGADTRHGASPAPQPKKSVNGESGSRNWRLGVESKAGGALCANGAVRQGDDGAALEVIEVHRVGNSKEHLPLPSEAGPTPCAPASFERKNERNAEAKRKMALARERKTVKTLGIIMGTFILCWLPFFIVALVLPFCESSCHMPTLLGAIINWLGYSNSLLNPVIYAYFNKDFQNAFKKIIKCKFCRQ", "assay": "Binding affinity to human recombinant serotonin 5-HT1A receptor"}, "[21]": {"target": "Sodium-dependent serotonin transporter (Homo sapiens, UniProt P31645)", "sequence (P31645 whole entry)": "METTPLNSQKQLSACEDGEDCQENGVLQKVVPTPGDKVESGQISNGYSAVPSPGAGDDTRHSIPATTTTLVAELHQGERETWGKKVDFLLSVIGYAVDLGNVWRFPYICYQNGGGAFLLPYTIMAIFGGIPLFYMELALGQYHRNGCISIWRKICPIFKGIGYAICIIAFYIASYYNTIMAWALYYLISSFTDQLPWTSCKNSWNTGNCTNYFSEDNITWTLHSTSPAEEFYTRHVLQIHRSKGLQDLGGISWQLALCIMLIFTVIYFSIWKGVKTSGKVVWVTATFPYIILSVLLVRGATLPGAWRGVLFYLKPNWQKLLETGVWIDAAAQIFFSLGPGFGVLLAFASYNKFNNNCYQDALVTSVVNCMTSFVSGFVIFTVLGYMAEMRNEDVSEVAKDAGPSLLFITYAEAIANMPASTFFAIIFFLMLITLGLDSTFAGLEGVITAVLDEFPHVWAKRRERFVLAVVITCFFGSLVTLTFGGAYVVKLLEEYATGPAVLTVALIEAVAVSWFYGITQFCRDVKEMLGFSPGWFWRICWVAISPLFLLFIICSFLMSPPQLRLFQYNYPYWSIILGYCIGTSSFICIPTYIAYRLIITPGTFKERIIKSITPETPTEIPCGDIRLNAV", "assay": "Binding affinity to human recombinant serotonin transporter"}, "[22]": {"target": "Vasopressin V1a receptor (Homo sapiens, UniProt P37288)", "sequence (P37288 whole entry)": "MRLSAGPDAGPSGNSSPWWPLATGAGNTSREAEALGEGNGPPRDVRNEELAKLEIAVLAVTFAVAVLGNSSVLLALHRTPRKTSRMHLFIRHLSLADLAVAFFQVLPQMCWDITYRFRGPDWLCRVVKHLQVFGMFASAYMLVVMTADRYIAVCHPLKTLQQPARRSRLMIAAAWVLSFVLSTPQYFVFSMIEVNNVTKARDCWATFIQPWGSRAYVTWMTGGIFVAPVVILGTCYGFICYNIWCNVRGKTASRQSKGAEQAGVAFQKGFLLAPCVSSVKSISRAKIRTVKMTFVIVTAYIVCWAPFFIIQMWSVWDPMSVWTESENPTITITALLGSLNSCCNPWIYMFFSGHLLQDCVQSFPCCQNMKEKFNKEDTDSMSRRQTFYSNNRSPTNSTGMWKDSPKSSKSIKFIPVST", "assay": "Binding affinity to human recombinant vasopressin V1a receptor"}, "[23]": {"assay": "AUC (0 to infinity) in CD1 mouse at 5.4 mg/kg, iv", "type": "ADME, organism-based", "design": "time infinity, dose 5.4 mg/kg, route intravenous", "settings": "plasma"}, "[24]": {"assay": "Oral bioavailability in CD1 mouse at 24.6 mg/kg", "type": "ADME, organism-based", "settings": "in vivo"}, "[25]": {"assay": "Volume of distribution at steady state in Wistar rat at 5 mg/kg, iv", "type": "ADME, organism-based", "design": "dose 5 mg/kg, route intravenous", "settings": "in vivo, read-out: Vdss"}, "[26]": {"assay": "Tmax in Wistar rat at 23.7 mg/kg, po", "type": "ADME, organism-based", "design": "dose 23.7 mg/kg, route oral", "settings": "in vivo"}, "[27]": {"assay": "AUC (0 to infinity) in Wistar rat at 23.7 mg/kg, po", "type": "ADME, organism-based", "design": "time infinity, dose 23.7 mg/kg, route oral", "settings": "plasma"}, "[28]": {"assay": "Intrinsic clearance in rat liver microsome", "type": "ADME", "settings": "liver microsomes"}, "[29]": {"system": "Plasmodium berghei", "assay": "Antimalarial activity against Plasmodium berghei GFP ANKA infected in NMRI mice (Mus musculus) assessed as survival at 10 mg/kg, perorally administered as single dose as single dose 24 hrs post infection for 1 day measured 72 hrs post infection", "type": "functional", "settings": "route oral"}, "[30]": {"system": "Plasmodium berghei", "assay": "Antimalarial activity against Plasmodium berghei GFP ANKA infected in NMRI mice (Mus musculus) assessed as cure rate at 30 mg/kg, perorally administered as single dose 24 hrs post infection for 1 day measured 30 days post infection", "type": "functional", "settings": "route oral"}, "[31]": {"system": "Plasmodium berghei", "assay": "Antimalarial activity against Plasmodium berghei GFP ANKA infected in NMRI mice (Mus musculus) assessed as survival at 10 mg/kg, perorally administered through 0.5% MCM/0.1%solutol HS15 formulation 24 hrs post infection for 3 days measured 96 hrs post infection", "type": "functional", "settings": "route oral"}, "[32]": {"system": "Plasmodium berghei", "assay": "Antimalarial activity against Plasmodium berghei GFP ANKA infected in NMRI mice (Mus musculus) assessed as survival at 30 mg/kg, perorally administered through 0.5% MCM/0.1%solutol HS15 formulation 24 hrs post infection for 3 days measured 96 hrs post infection", "type": "functional", "settings": "route oral"}, "[33]": {"system": "Plasmodium berghei", "assay": "Antimalarial activity against Plasmodium berghei GFP ANKA infected in NMRI mice (Mus musculus) assessed as cure rate at 10 mg/kg, perorally administered through 0.5% MCM/0.1%solutol HS15 formulation 24 hrs post infection for 3 days measured on day 30 post infection", "type": "functional", "settings": "route oral"}, "[34]": {"system": "Plasmodium falciparum", "assay": "Antimalarial activity against NITD609-resistant Plasmodium falciparum Dd2 Clone1 bearing P-type ATPase4 I398F and P990R mutations after 72 hrs by SYBR green based fluorescence assay", "type": "functional, organism-based", "settings": "Dd2, 72 h"}, "[35]": {"system": "Plasmodium falciparum", "assay": "Antimalarial activity against Plasmodium falciparum isolates after 42 hrs", "type": "functional, organism-based"}, "[36]": {"system": "Plasmodium falciparum", "assay": "Inhibition of protein synthesis in NITD609-resistant Plasmodium falciparum Dd2 Clone3 within 1 hrs by [35S]Met/Cys incorporation assay", "type": "functional"}, "[37]": {"system": "Plasmodium falciparum", "assay": "microbe, parasite or virus in culture", "settings": "Dd2, 72 h"}, "[38]": {"system": "Plasmodium falciparum", "assay": "microbe, parasite or virus in culture", "settings": "Dd2, 72 h", "remark": "listed apart in the source"}}, "note": "Active and inactive are the calls of the source. The calls are words filed in the database; no cut-off is given here.", "data": [{"smiles": "C[C@H]1Cc2c([nH]c3cc(Cl)c(F)cc23)[C@@]2(N1)C(=O)Nc1ccc(Cl)cc12", "note": "[CIPARGAMIN]", "values": [{"measurement": "inhibition", "setting": "[1]", "value": "Active"}, {"measurement": "inhibition at 0.0016 µM", "setting": "[2]", "value": "> 90", "unit": "%"}, {"measurement": "IC50", "setting": "[3]", "value": 0.001, "unit": "µM"}, {"measurement": "inhibition at 30 µM", "setting": "[4]", "value": 52, "unit": "%"}, {"measurement": "IC50", "setting": "[5]", "value": "> 10", "unit": "µM"}, {"measurement": "IC50", "setting": "[6]", "value": "> 10", "unit": "µM"}, {"measurement": "IC50", "setting": "[7]", "value": "> 10", "unit": "µM"}, {"measurement": "IC50", "setting": "[8]", "value": "> 10", "unit": "µM"}, {"measurement": "IC50", "setting": "[9]", "value": "> 30", "unit": "µM"}, {"measurement": "IC50", "setting": "[10]", "value": "> 30", "unit": "µM"}, {"measurement": "IC50", "setting": "[11]", "value": "> 10", "unit": "µM"}, {"measurement": "IC50", "setting": "[12]", "value": "> 30", "unit": "µM"}, {"measurement": "IC50", "setting": "[13]", "value": "> 10", "unit": "µM"}, {"measurement": "IC50", "setting": "[14]", "value": "> 10", "unit": "µM"}, {"measurement": "IC50", "setting": "[15]", "value": "> 30", "unit": "µM"}, {"measurement": "IC50", "setting": "[16]", "value": "> 10", "unit": "µM"}, {"measurement": "IC50", "setting": "[17]", "value": "> 10", "unit": "µM"}, {"measurement": "IC50", "setting": "[18]", "value": "> 10", "unit": "µM"}, {"measurement": "IC50", "setting": "[19]", "value": "> 10", "unit": "µM"}, {"measurement": "IC50", "setting": "[20]", "value": "> 10", "unit": "µM"}, {"measurement": "IC50", "setting": "[21]", "value": "> 10", "unit": "µM"}, {"measurement": "IC50", "setting": "[22]", "value": "> 10", "unit": "µM"}, {"measurement": "AUC(0-inf)", "setting": "[23]", "value": 23.9, "unit": "µM·h"}, {"measurement": "bioavailability", "setting": "[24]", "value": 100, "unit": "%"}, {"measurement": "Vd", "setting": "[25]", "value": 3.04, "unit": "L/kg"}, {"measurement": "Tmax", "setting": "[26]", "value": 8, "unit": "h"}, {"measurement": "AUC(0-inf)", "setting": "[27]", "value": 524, "unit": "µM·h"}, {"measurement": "CLint scaled", "setting": "[28]", "value": 5.8, "unit": "mL/min/kg"}, {"measurement": "mean survival time at 10 mg/kg", "setting": "[29]", "value": 13.3, "unit": "days"}, {"measurement": "Activity", "setting": "[30]", "value": 50, "unit": "%"}, {"measurement": "Survival", "setting": "[31]", "value": 24.4, "unit": "days"}, {"measurement": "Survival", "setting": "[32]", "value": 29.1, "unit": "days"}, {"measurement": "Activity", "setting": "[33]", "value": 50, "unit": "%"}, {"measurement": "IC50", "setting": "[34]", "value": 0.0109, "unit": "µM"}, {"measurement": "inhibition", "setting": "[35]", "value": "Active"}, {"measurement": "inhibition (INH)", "setting": "[36]", "value": 50, "unit": "%"}, {"measurement": "IC50", "setting": "[37]", "value": 0.0028, "unit": "µM"}, {"measurement": "IC50", "setting": "[38]", "value": 0.0041, "unit": "µM"}]}]}
